From patent US20240124422A1, “MUTANT PI3K-ALPHA INHIBITORS AND THEIR USE AS PHARMACEUTICALS” (Prelude Therapeutics Incorporated, priority 2022, published 2024) come the findings set out here.

A word on the IC50: it is the concentration needed to halve the response being measured.

Molecules are shown by their SMILES.

The subject of the first assay is phosphorylation of AKT on Ser473 as a readout of the PI3K pathway in T-47D (heterozygous PIK3CA H1047R) cells. Nature of the assay: PI3K pathway activation assay, pAKT Ser473 HTRF, T-47D cells. The format is cell-based. The note with it: Homo sapiens, T47D, 2 h, two hours of treatment. The method, then:
The inhibitory activity of compounds was evaluated by measuring phosphorylation of AKT on Ser473 as a readout of the PI3K pathway using HTRF (CisBio catalog number: 64AKSPE). These studies were conducted in the T-47D (heterozygous PIK3CA H1047R) and SKBR3 (PIK3CA WT) cell lines. Cells were maintained in a 37° C. incubator at 5% CO2 in the following media: T-47D: RPMI 1640, ATCC© Modification (Gibco, A10491-01) supplemented with 10% v/v FBS (Gibco, 26140-079), 1% penicillin streptomycin (Gibco, 15140-122), and 7.4 ug/mL insulin (MilliporeSigma, I9278); SKBR3: McCoy's 5a (Modified) Medium (Gibco, 16600-082) supplemented with 10% v/v FBS (Gibco, 26140-079). Cells were seeded in 384-well plates at a density of 4,000 cells/well. Compounds dissolved in DMSO were added using a digital dispense (D300E, Tecan) 10-point serial dilution. After two hours of treatment, cells were lysed for thirty minutes and then incubated with detection reagents per HTRF kit material and manufacturer's instructions. Fluorescence signal was measured with a multimode plate reader (Envision 2105, Perkin Elmer). Fluorescent signal was normalized to background and DMSO controls to obtain percent inhibition/activity for each compound.
On the technique in general: TR-FRET usually uses a lanthanide donor and a delayed reading to cut background.
`Cc1cc(C(C)Nc2ccccc2C(=O)O)c2nc(N3CCC(O)CC3)n(C)c(=O)c2c1` (stereo not drawn) [Example 57, 2-((1-(2-(4-hydroxypiperidin-1-yl)-3,6-dimethyl-4-oxo-3,4-dihydroquinazolin-8-yl)ethyl)amino)benzoic acid] yielded an IC50 of 500 to 10000 nM.

Take `Cc1cc(C(C)Nc2ccccc2C(=O)O)c2nc(N3CC4CC3CN4C(=O)OC(C)(C)C)n(C)c(=O)c2c1` (stereo not drawn) [Example 65, 2-((1-(2-(5-(tert-Butoxycarbonyl)-2,5-diazabicyclo[2.2.1]heptan-2-yl)-3,6-dimethyl-4-oxo-3,4-dihydroquinazolin-8-yl)ethyl)amino)benzoic acid]: the IC50 is 500 to 10000 nM.

`CC(=O)N1C[C@H]2CN(c3nc4c(C(C)Nc5ccccc5C(=O)O)cc(C)cc4c(=O)n3C)C[C@@H]2C1` (stereo partly drawn) [Example 66, 2-((1-(2-((3aR,6aR)-5-Acetylhexahydropyrrolo[3,4-c]pyrrol-2(1H)-yl)-3,6-dimethyl-4-oxo-3,4-dihydroquinazolin-8-yl)ethyl)amino)benzoic acid] gave a 50% inhibitory concentration (IC50) of 500 to 10000 nM.

`C=CC(=O)N1CCCC1c1nc2c(C(C)Nc3ccccc3C(=O)O)cc(C)cc2c(=O)n1C` (stereo not drawn) [Example 71, 2-[1-[3,6-Dimethyl-4-oxo-2-(1-prop-2-enoylpyrrolidin-2-yl)quinazolin-8-yl]ethylamino]benzoic acid] registered an IC50 of 500 to 10000 nM.

`CC(Nc1ccccc1C(=O)O)c1cccc2c(=O)n(C)c(N3Cc4ccccc4C3)nc12` (stereo not drawn) [Example 72, 2-((1-(2-(Isoindolin-2-yl)-3-methyl-4-oxo-3,4-dihydroquinazolin-8-yl)ethyl)amino)benzoic acid] yielded an IC50 of 500 to 10000 nM.

With `Cc1cc(C(C)Nc2ccccc2C(=O)O)c2nc(C3CCCN3S(=O)(=O)F)n(C)c(=O)c2c1` (stereo not drawn) [Example 73, 2-[1-[2-(1-Fluorosulfonylpyrrolidin-2-yl)-3,6-dimethyl-4-oxoquinazolin-8-yl]ethylamino]benzoic acid], the IC50 lay within 500 to 10000 nM.

`CC(Nc1ccccc1C(=O)O)c1cc(Br)cc2c(=O)n(C)c(N3CCC(F)(F)CC3)nc12` (stereo not drawn) [Example 74, 2-((1-(6-Bromo-2-(4,4-difluoropiperidin-1-yl)-3-methyl-4-oxo-3,4-dihydroquinazolin-8-yl)ethyl)amino)benzoic acid]: the IC50 is < 500 nM.

Regarding `Cc1cc(C(C)Nc2ccccc2C(=O)O)c2nc(N3Cc4ccccc4C3)n([C@H]3C[C@H](C#N)C3)c(=O)c2c1` (stereo partly drawn) [Example 75, 2-((1-(3-((1r,3r)-3-Cyanocyclobutyl)-2-(isoindolin-2-yl)-6-methyl-4-oxo-3,4-dihydroquinazolin-8-yl)ethyl)amino)benzoic acid], the IC50 lay within 500 to 10000 nM.

For the compound `CC(Nc1ccccc1C(=O)O)c1cc(C2CC2)cc2c(=O)n(C)c(N3CC4CC4C3)nc12` (stereo not drawn) [Example 76, 2-((1-(2-(3-Azabicyclo[3.1.0]hexan-3-yl)-6-cyclopropyl-3-methyl-4-oxo-3,4-dihydroquinazolin-8-yl)ethyl)amino)benzoic acid], the IC50 fell in the range of 500 to 10000 nM.

In turn, `COc1cc(C(C)Nc2ccccc2C(=O)O)c2nc(N3CC4CC4C3)n(C)c(=O)c2c1` (stereo not drawn) [Example 77, 2-((1-(2-(3-azabicyclo[3.1.0]hexan-3-yl)-6-methoxy-3-methyl-4-oxo-3,4-dihydroquinazolin-8-yl)ethyl)amino)benzoic acid] had an IC50 of 500 to 10000 nM.

The compound `CCc1cc(C(C)Nc2ccccc2C(=O)O)c2nc(N3CC4CC4C3)n(C)c(=O)c2c1` (stereo not drawn) [Example 78, 2-((1-(2-(3-Azabicyclo[3.1.0]hexan-3-yl)-6-ethyl-3-methyl-4-oxo-3,4-dihydroquinazolin-8-yl)ethyl)amino)benzoic acid] yielded a 50% inhibitory concentration (IC50) of 500 to 10000 nM.

Consider `CC(Nc1ccccc1C(=O)O)c1cc(C(F)F)cc2c(=O)n(C)c(N3CC4CC4C3)nc12` (stereo not drawn) [Example 79, 2-((1-(2-(3-Azabicyclo[3.1.0]hexan-3-yl)-6-(difluoromethyl)-3-methyl-4-oxo-3,4-dihydroquinazolin-8-yl)ethyl)amino)benzoic acid], for which the IC50 is 500 to 10000 nM.

`Cc1cc(C(C)Nc2ccc(C(F)(F)F)nc2C(=O)O)c2nc(N3CC4CC4C3)n(C)c(=O)c2c1` (stereo not drawn) [Example 80, 3-((1-(2-(3-azabicyclo[3.1.0]hexan-3-yl)-3,6-dimethyl-4-oxo-3,4-dihydro-quinazolin-8-yl)ethyl)amino)-6-(trifluoromethyl)picolinic acid] yielded an IC50 of 500 to 10000 nM.

As for `Cc1cc(C(C)Nc2ccccc2C(=O)O)c2nc(N3C[C@@H]4[C@H](C3)[C@H]4C(=O)N(C)C(C)C)n(C)c(=O)c2c1` (stereo partly drawn) [Example 81, 2-((1-(2-((1R,5S,6R)-6-(Isopropyl(methyl)carbamoyl)-3-azabicyclo[3.1.0]hexan-3-yl)-3,6-dimethyl-4-oxo-3,4-dihydroquinazolin-8-yl)ethyl)amino)benzoic acid], the IC50 is < 500 nM.

The assay is the same for the next values; noted with them: two hours of treatment, read-out: T47D pAKT IC50.
Take `Cc1cc(C(C)Nc2ccccc2C(=O)O)c2nc(N3C[C@@H]4C(NC(=O)OCc5ccccc5)[C@@H]4C3)n(C)c(=O)c2c1` (stereo partly drawn) [Example 59, 2-((1-(2-((1R,5S,6s)-6-(((benzyloxy)carbonyl)amino)-3-azabicyclo[3.1.0]hexan-3-yl)-3,6-dimethyl-4-oxo-3,4-dihydroquinazolin-8-yl)ethyl)amino)benzoic acid]: the IC50 is 500 to 10000 nM.

For the compound `Cc1cc(C(C)Nc2ccccc2C(=O)O)c2nc(N3C[C@@H]4C(NC(=O)OCC(F)(F)F)[C@@H]4C3)n(C)c(=O)c2c1` (stereo partly drawn) [Example 60, 2-((1-(3,6-dimethyl-4-oxo-2-((1R,5S,6s)-6-(((2,2,2-trifluoroethoxy)carbonyl)amino)-3-azabicyclo[3.1.0]hexan-3-yl)-3,4-dihydroquinazolin-8-yl)ethyl)amino)benzoic acid], the IC50 was in the range of 500 to 10000 nM.

For the compound `Cc1cc(C(C)Nc2ccccc2C(=O)O)c2nc(N3C[C@@H]4C(NC(=O)OCCN5CCOCC5)[C@@H]4C3)n(C)c(=O)c2c1` (stereo partly drawn) [Example 61, 2-((1-(3,6-dimethyl-2-((1R,5S,6s)-6-(((2-morpholinoethoxy)carbonyl)amino)-3-azabicyclo[3.1.0]hexan-3-yl)-4-oxo-3,4-dihydroquinazolin-8-yl)ethyl)amino)benzoic acid], the IC50 lay in the range of 500 to 10000 nM.

As to `COc1ccc(OC(=O)NC2[C@H]3CN(c4nc5c(C(C)Nc6ccccc6C(=O)O)cc(C)cc5c(=O)n4C)C[C@@H]23)cc1` (stereo partly drawn) [Example 62, 2-((1-(2-((1R,5S,6s)-6-(((4-methoxyphenoxy)carbonyl)amino)-3-azabicyclo[3.1.0]hexan-3-yl)-3,6-dimethyl-4-oxo-3,4-dihydroquinazolin-8-yl)ethyl)amino)benzoic acid], the IC50 lay within 500 to 10000 nM.

Consider `Cc1cc(C(C)Nc2ccccc2C(=O)O)c2nc(N3C[C@@H]4C(NC(=O)OC5CC5)[C@@H]4C3)n(C)c(=O)c2c1` (stereo partly drawn) [Example 63, 2-((1-(2-((1R,5S,6s)-6-((cyclopropoxycarbonyl)amino)-3-azabicyclo[3.1.0]hexan-3-yl)-3,6-dimethyl-4-oxo-3,4-dihydroquinazolin-8-yl)ethyl)amino)benzoic acid], for which the IC50 fell in the range of 500 to 10000 nM.

For `Cc1cc(C(C)Nc2ccccc2C(=O)O)c2nc(N3C[C@@H]4[C@H](C3)[C@H]4NC(=O)OCC3CCCO3)n(C)c(=O)c2c1` (stereo partly drawn) [Example 64, 2-((1-(3,6-dimethyl-4-oxo-2-((1R,5S,6s)-6-((((tetrahydrofuran-2-yl)methoxy)carbonyl)amino)-3-azabicyclo[3.1.0]hexan-3-yl)-3,4-dihydroquinazolin-8-yl)ethyl)amino)benzoic acid], the IC50 fell in the range of 500 to 10000 nM.

Take `CON(C)C(=O)C1[C@H]2CN(c3nc4c(C(C)Nc5ccccc5C(=O)O)cc(C)cc4c(=O)n3C)C[C@@H]12` (stereo partly drawn) [Example 83, 2-((1-(2-((1R,5S,6R)-6-(Methoxy(methyl)carbamoyl)-3-azabicyclo[3.1.0]hexan-3-yl)-3,6-dimethyl-4-oxo-3,4-dihydroquinazolin-8-yl)ethyl)amino)benzoic acid]: the IC50 is < 500 nM.

With `Cc1cc(C(C)Nc2ccccc2C(=O)O)c2nc(N3C[C@@H]4[C@H](C3)[C@H]4C(=O)N(C)CC(F)F)n(C)c(=O)c2c1` (stereo partly drawn) [Example 84, 2-((1-(2-((1R,5S,6R)-6-((2,2-Difluoroethyl)(methyl)carbamoyl)-3-azabicyclo[3.1.0]hexan-3-yl)-3,6-dimethyl-4-oxo-3,4-dihydroquinazolin-8-yl)ethyl)amino)benzoic acid], the IC50 is < 500 nM.

As for `Cc1cc(C(C)Nc2ccccc2C(=O)O)c2nc(N3C[C@@H]4C(C(=O)N5CCC[C@@H]5C)[C@@H]4C3)n(C)c(=O)c2c1` (stereo partly drawn) [Example 85, 2-((1-(3,6-Dimethyl-2-((1R,5S,6R)-6-((S)-2-methylpyrrolidine-1-carbonyl)-3-azabicyclo[3.1.0]hexan-3-yl)-4-oxo-3,4-dihydroquinazolin-8-yl)ethyl)amino)benzoic acid], the IC50 is < 500 nM.

For the compound `Cc1cc(C(C)Nc2ccccc2C(=O)O)c2nc(N3C[C@@H]4[C@H](C3)[C@H]4C(=O)N3CCOC[C@@H]3C)n(C)c(=O)c2c1` (stereo partly drawn) [Example 86, 2-((1-(3,6-Dimethyl-2-((1R,5S,6R)-6-((S)-3-methylmorpholine-4-carbonyl)-3-azabicyclo[3.1.0]hexan-3-yl)-4-oxo-3,4-dihydroquinazolin-8-yl)ethyl)amino)benzoic acid], the IC50 is < 500 nM.
